Measurements taken from patent US4800199A, “3-[2-thiazoloamino]-8-oxo-7-substituted-5-thia-1-a zabicyclo-[4.2.0]oct-2-ene-2-carboxylic acid and salts thereof and diphenylmethyl esters thereof” (American Cyanamid Company, priority 1986, dated 1989).
Converted amounts (≈) assume the structure as drawn.

What was measured:
Assay in all cases: In vitro antibacterial activity, Mueller-Hinton agar dilution
Format in all cases: cell-based
[1] = tested on: Streptococcus sanguis G-9B (a); conditions: read-out: Minimal Inhibitory Concentration
Description: (§1) The results of this test on representative compounds of this invention appear in Table I.

[2] = tested on: Staphylococcus aureus LL No. 14; conditions: LLNO.14, read-out: Minimal Inhibitory Concentration
Description: as §1

Escherichia coli 311 = conditions: read-out: Minimal Inhibitory Concentration
Description: as §1

Saccharomyces Y 15 = conditions: Y15, read-out: Minimal Inhibitory Concentration
Description: as §1

Acinetobacter STFD 79-17 = conditions: STFD7917, read-out: Minimal Inhibitory Concentration
Description: as §1

[3] = tested on: Escherichia coli ATCC 25922; conditions: ATCC25922, read-out: Minimal Inhibitory Concentration
Description: as §1

[4] = tested on: Streptococcus mutans BHI (b); conditions: read-out: Minimal Inhibitory Concentration
Description: as §1

[5] = tested on: Streptococcus mutans ATCC 27352-1; conditions: ATCC27352, read-out: Minimal Inhibitory Concentration
Description: as §1

Enterococcus OSU 75-1 = conditions: OSU751, read-out: Minimal Inhibitory Concentration
Description: as §1

[6] = tested on: Mycobacterium smegmatis ATCC 607; conditions: Mycolicibacterium smegmatis, ATCC607, read-out: Minimal Inhibitory Concentration
Description: as §1

Proteus morganii K79-25 = conditions: Morganella morganii, K7925, read-out: Minimal Inhibitory Concentration
Description: as §1

[7] = tested on: Staphylococcus aureus LL No. 45; conditions: LLNO.45, read-out: Minimal Inhibitory Concentration
Description: as §1

Bacillus cereus LL No. 4 = conditions: LLNO.4, read-out: Minimal Inhibitory Concentration
Description: as §1

[8] = tested on: Micrococcus lutea PC 1001; conditions: PC1001, read-out: Minimal Inhibitory Concentration
Description: as §1

[9] = tested on: Staphylococcus aureus Smith; conditions: read-out: Minimal Inhibitory Concentration
Description: as §1

Serratia Tul 78-15 = conditions: TUL7815, read-out: Minimal Inhibitory Concentration
Description: as §1

Candida albicans CA 300 = conditions: CA300, read-out: Minimal Inhibitory Concentration
Description: as §1

Enterococcus SM 77-15 = conditions: SM7715, read-out: Minimal Inhibitory Concentration
Description: as §1

[10] = tested on: Bacillus subtilis ATCC 6633; conditions: ATCC6633, read-out: Minimal Inhibitory Concentration
Description: as §1

Klebsiella pneumoniae AD = conditions: read-out: Minimal Inhibitory Concentration
Description: as §1

[11] = tested on: Enterobacter cloacae K79-16; conditions: K7916, read-out: Minimal Inhibitory Concentration
Description: as §1

Salmonella QHC 77-3 = conditions: QHC773, read-out: Minimal Inhibitory Concentration
Description: as §1

[12] = tested on: Staphylococcus epidermidis CMC 83-56; conditions: CMC8356, read-out: Minimal Inhibitory Concentration
Description: as §1

[13] = tested on: Staphylococcus aureus ATCC 25923; conditions: ATCC25923, read-out: Minimal Inhibitory Concentration
Description: as §1

[14] = tested on: Citrobacter freundii K81-28; conditions: K8128, read-out: Minimal Inhibitory Concentration
Description: as §1

[15] = tested on: Pseudomonas aeruginosa 12-4-4; conditions: 1244, read-out: Minimal Inhibitory Concentration
Description: as §1

[16] = tested on: Staphylococcus aureus LL No. 27; conditions: LLNO.27, read-out: Minimal Inhibitory Concentration
Description: as §1

[17] = tested on: Pseudomonas aeruginosa ATCC 27853; conditions: ATCC27853, read-out: Minimal Inhibitory Concentration
Description: as §1

[18] = tested on: Streptococcus faecalis ATCC 29212; conditions: Enterococcus faecalis, ATCC29212, read-out: Minimal Inhibitory Concentration
Description: as §1

[19] = tested on: Staphylococcus epidermidis ATCC 12228; conditions: ATCC12228, read-out: Minimal Inhibitory Concentration
Description: as §1

CCOC(=O)c1csc(N[C@@H]2C(=O)N3C(C(=O)O)=C(COC(C)=O)CS[C@H]23)n1 [Example 2]
MIC [1]: 4 µg/mL (≈ 9.36 µM)
MIC [2]: 1 µg/mL (≈ 2.34 µM)
MIC (Escherichia coli 311): 512 µg/mL (≈ 1200 µM)
MIC (Saccharomyces Y 15): 128 µg/mL (≈ 299 µM)
MIC (Acinetobacter STFD 79-17): > 512 µg/mL
MIC [3]: > 512 µg/mL
MIC [4]: ≤ 0.25 µg/mL
MIC [5]: ≤ 0.25 µg/mL
MIC (Enterococcus OSU 75-1): 128 µg/mL (≈ 299 µM)
MIC [6]: 128 µg/mL (≈ 299 µM)
MIC (Proteus morganii K79-25): > 512 µg/mL
MIC [7]: 1 µg/mL (≈ 2.34 µM)
MIC (Bacillus cereus LL No. 4): 64 µg/mL (≈ 150 µM)
MIC [8]: 4 µg/mL (≈ 9.36 µM)
MIC [9]: 1 µg/mL (≈ 2.34 µM)
MIC (Serratia Tul 78-15): > 512 µg/mL
MIC (Candida albicans CA 300): > 512 µg/mL
MIC (Enterococcus SM 77-15): 128 µg/mL (≈ 299 µM)
MIC [10]: 4 µg/mL (≈ 9.36 µM)
MIC (Klebsiella pneumoniae AD): 512 µg/mL (≈ 1200 µM)
MIC [11]: > 512 µg/mL
MIC (Salmonella QHC 77-3): > 512 µg/mL
MIC [12]: 0.5 µg/mL (≈ 1.17 µM)
MIC [13]: 1 µg/mL (≈ 2.34 µM)
MIC [14]: 512 µg/mL (≈ 1200 µM)
MIC [15]: > 512 µg/mL
MIC [16]: 4 µg/mL (≈ 9.36 µM)
MIC [17]: > 512 µg/mL
MIC [18]: 128 µg/mL (≈ 299 µM)
MIC [19]: 0.5 µg/mL (≈ 1.17 µM)

CC(=O)OCC1=C(C(=O)O)N2C(=O)[C@@H](Nc3nc(-c4ccccc4)cs3)[C@H]2SC1 [Example 3, (6R-trans)-3-[(Acetyloxy)methyl]-8-oxo-7-[(4-phenyl-2-thiazolyl)amino]-5-thia-1-azabicyclo[4.2.0]oct-2-ene-2-carboxylic acid]
MIC [1]: 1 µg/mL (≈ 2.32 µM)
MIC [2]: 4 µg/mL (≈ 9.27 µM)
MIC (Escherichia coli 311): > 512 µg/mL
MIC (Saccharomyces Y 15): 256 µg/mL (≈ 593 µM)
MIC (Acinetobacter STFD 79-17): > 512 µg/mL
MIC [3]: > 512 µg/mL
MIC [4]: 0.5 µg/mL (≈ 1.16 µM)
MIC [5]: 8 µg/mL (≈ 18.5 µM)
MIC (Enterococcus OSU 75-1): 256 µg/mL (≈ 593 µM)
MIC [6]: 256 µg/mL (≈ 593 µM)
MIC (Proteus morganii K79-25): > 512 µg/mL
MIC [7]: 4 µg/mL (≈ 9.27 µM)
MIC (Bacillus cereus LL No. 4): 128 µg/mL (≈ 297 µM)
MIC [8]: 8 µg/mL (≈ 18.5 µM)
MIC [9]: 8 µg/mL (≈ 18.5 µM)
MIC (Serratia Tul 78-15): > 512 µg/mL
MIC (Candida albicans CA 300): > 512 µg/mL
MIC (Enterococcus SM 77-15): 256 µg/mL (≈ 593 µM)
MIC [10]: 8 µg/mL (≈ 18.5 µM)
MIC (Klebsiella pneumoniae AD): > 512 µg/mL
MIC [11]: > 512 µg/mL
MIC (Salmonella QHC 77-3): > 512 µg/mL
MIC [12]: 8 µg/mL (≈ 18.5 µM)
MIC [13]: 8 µg/mL (≈ 18.5 µM)
MIC [14]: > 512 µg/mL
MIC [15]: > 512 µg/mL
MIC [16]: 16 µg/mL (≈ 37.1 µM)
MIC [17]: > 512 µg/mL
MIC [18]: 256 µg/mL (≈ 593 µM)
MIC [19]: 16 µg/mL (≈ 37.1 µM)
